Results on eight compounds are retold here after patent US10071042B2, “External dermatological agent for anti-ageing” (Hayashibara Co., Ltd., priority 2014, dated 2018).

Assay [1] relates to normal human epidermal keratinocytes. In words: Differentiation of keratinocytes, microscopic morphology score (Experiment 1-1). Type of assay: cell-based. To be noted: 3 days culture, mean of triplicate. The text has this:
To 12-well plates, one milliliter of a cell suspension with a cell density of 2.5×10^4 cells/mL prepared by suspending normal human epidermal keratinocytes in EpiLife, a product name of a medium for keratinocytes containing a growth factor, commercialized by Life Technologies, Inc., 9800 Medical Center Drive Rockville, Md. 20850 USA; followed by culturing the cells until prevailing up to about ½ of the bottom surface of each well. Thereafter, the culture medium in each well was replaced with a medium for keratinocytes free of growth factor and cultured for two days, and then replaced with a fresh medium for keratinocytes, which contained any one of the test substances in Table 1 at respective concentrations as indicated in the table, and then cultured for three days. As a control, a culture system was provided similarly as above except for not adding any of the test substances. Under a microscopic condition, cell morphology was observed and evaluated for the keratinocyte-differentiation-inducing ability based on the following criteria:
Score 1: The number of cells in a flattened form against the total cells is 50% or lower.
Score 2: The number of cells in a flattened form against the total cells is 50% or more.
Score 3: Nearly all of the cells are in an irregular shape and there appears some cells with gloss.
It means that the higher the score the more the cell differentiation was accelerated. Each experiment system was performed in a triplicate manner, followed by calculating a mean value for each system.

The next assay relates to transglutaminase. In words: Transglutaminase activity, fluorescein cadaverine uptake (Experiments 1-3 and 7). The class given is cell-based, human. The settings on record: for Transglutaminase activity (%): control = 100%. The protocol:
Normal human epidermal keratinocytes were cultured similarly as in Experiment 1-1, except for adding the test substances as listed in Table 3 to respective culture systems. The cultured normal human epidermal keratinocytes were added with 100 μM of fluorescein cadaverine and allowed to stand for four hours. Thereafter, the resulting cells were washed once with phosphate buffered saline and further treated with cold methanol for 10 min for cell fixation. The fixed cells were washed thrice with cold methanol, followed by the addition of phosphate buffered saline. Fluorescein cadaverine taken in the cells via transglutaminase was analyzed with Cell Imaging Station, commercialized by Molecular Probes Life Technology, France, and the analyzed fluorescent intensities were regarded as transglutaminase activities. There was provided a control system similarly as in the above, except for not adding any of the test substances. The transglutaminase activity of each test substance was evaluated as a relative value determined with the following equation using the fluorescent intensity of the control system being regarded as 100%. Equation: Transglutaminase activity (relative value (%))=[(Fluorescent intensity of a sample with any one of test substances)/(Fluorescent intensity of control)]×100
The experiment was repeated three times, and the data was subjected to the Dunnett's multiple comparisons with Control. The symbol “*” means a level of significance of p<0.01.
Except for adding the test substances listed in Tables 8 and 9 at respective concentrations shown in the tables, experiments were respectively conducted in accordance with the methods in Experiments 1-2 and 1-3 disclosed in the specification to examine the effect of the combination use of epigallocatechin gallate, which is used as an antioxidant for cosmetics, and sodium adenosine N1-oxide 5′-phosphate on the action of accelerating the cornified-envelope production and the action of enhancing the transglutaminase activity of sodium adenosine N1-oxide 5′-phosphate. A control system was provided and similarly treated as above except for not adding any test substance and was determined for both the increase rates of cornified-envelope production level and the transglutaminase activity, based on the following equations. Equation: Increase rate of cornified envelope production level (%)={[(Absorbance of a sample with any one of test substances)/(Absorbance of control)]×100}−100 Equation: Increase rate of transglutaminase (%)={[(Absorbance of a sample with any one of test substances)/(Absorbance of control)]×100}−100

Assay [2] has as its system human epidermoid carcinoma cell line A-431. In words: Tight-junction function, lucifer yellow transmittance (Experiments 2 and 8). Type of assay: cell-based. To be noted: for Relative transmittance of lucifer yellow (%): control = 100%. An excerpt:
A human epidermoid carcinoma cell line A-431 was suspended in a media, supplemented with any of the test substances disclosed in Table 4 and having respective concentrations as indicated in the table, to give a cell concentration of 1×10^5 cells/mL, and each cell suspension was placed in an insert cup for a 12-well culture plate by two milliliters per well, followed by culturing the cells until reaching a confluent state through over the bottom surface of each well. The inner and the outer cup volumes were adjusted to give two milliliters while checking both the liquid levels of the cups were constant, and lucifer yellow as a model for permeating substance, commercialized by Life Technologies Corporation, CA, USA, was added to each inner cup to give a final concentration of 100 μM. Thereafter, the fluorescent intensities of lucifer yellow in the culture media in both the inner and the outer cups were measured, followed by calculating the percentage of the fluorescent intensity of the outer cup against that of the sum of the outer and the inner cups for use as a transmittance of lucifer yellow with the following equation. Equation: Transmittance of lucifer yellow (%)={(Absorbance of a liquid outside of an insert cup)/[(Absorbance of a liquid inside of the insert cup)+(Absorbance of the liquid outside of the insert cup)]}×100
There was provided a control system prepared similarly as above except for not adding any of the test substances, and the transmittance of lucifer yellow was regarded as 100% for evaluating the reduction of transmittance due to the reinforcement of the function of tight junction, based on the following equation. Equation: Relative transmittance (Relative percentage (%)) of lucifer yellow=[(Transmittance of a sample with any one of test substances)/(Transmittance of control)]×100
The experiment was repeated three times, and the data was subjected to the Dunnett's multiple comparisons with control. The symbol “*” means a level of significance of p<0.01.
Except for adding the test substances listed in Table 11 at respective concentrations shown in the table, experiments were respectively conducted in accordance with the methods in Experiment 2 disclosed in the specification to examine the effect of the combination use with ethylenediaminetetraacetate used as a preservative for cosmetics on the action of reinforcing the function of tight junction by sodium adenosine N1-oxide 5′-phosphate. A control system was provided and similarly treated as above except for not adding any test substance. The reduction rate of relative transmittance of lucifer yellow against that of control based on the following equation. Equation: Reduction rate of relative transmittance of lucifer yellow (%)=100−[(Transmittance of a sample with any one of test substances)/(Transmittance of control)]×100

Assay [3] deals with normal human dermal fibroblasts (NHDF). In words: Number of cells, cytometry kit (Experiment 5). The settings on record: control = 100%. Type of assay: cell-based. The text has this:
The number of cells was counted with a cytometry kit (or a staining method) and the variation of cell number when added with any one of the test substances, based on the value of control being regarded as 100%.

Marks after values point to notes of the source that are not given here.

Turning to “3′-α-Glucosyladenosine [reference compound]”, the Score in assay [1] (200 μM), in assay [1] (400 μM) and in assay [1] (800 μM) was 0.0 in each case. Besides, in the assay with transglutaminase (400 μM), the “Transglutaminase activity (%)” value was 269%. For the same compound, the “Relative transmittance of lucifer yellow (%)” value in assay [2] (200 μM) amounted to 94.5%; in assay [2] (400 μM), 94.8%. The results for the “Number of cells (%)” value in assay [3] (200 μM), in assay [3] (400 μM) and in assay [3] (800 μM) were 98.9%, 101.1% and 107.2%, respectively.
As for “3′-α-glucosyl adenosine N1-oxide [3′-α-Glucosyladenosine N1-oxide]”, the Score in assay [1] (40 μM) is 2.0; in assay [1] (80 μM) it was 2.0; in assay [1] (160 μM), 3.0. The “Transglutaminase activity (%)” value in the assay with transglutaminase (100 μM) was 300%. For the same compound, the results for the “Relative transmittance of lucifer yellow (%)” value in assay [2] (200 μM) and in assay [2] (400 μM) were 112.3% and 102.3%, respectively. In addition, the “Number of cells (%)” value in assay [3] (200 μM) worked out at 103.8%; in assay [3] (400 μM), 104.5%; in assay [3] (800 μM), 97.4%.
Take “5′-α-Glucosyladenosine [reference compound]”: the Score in assay [1] (200 μM), in assay [1] (400 μM) and in assay [1] (800 μM) was 0.0 in each case. The “Transglutaminase activity (%)” value with transglutaminase (400 μM) came out at 33%. The “Relative transmittance of lucifer yellow (%)” value is recorded as 94.2% in assay [2] (200 μM) and 82.3% in assay [2] (400 μM). Further, the figures for the “Number of cells (%)” value in assay [3] (200 μM), in assay [3] (400 μM) and in assay [3] (800 μM) were 104.0%, 103.4% and 93.4%, respectively.
As for “5′-α-glucosyl adenosine N1-oxide [5′-α-Glucosyladenosine N1-oxide]”, the Score was 2.0 in assay [1] (200 μM), 2.0 in assay [1] (400 μM) and 3.0 in assay [1] (800 μM). Moreover, the “Transglutaminase activity (%)” value in the assay on transglutaminase (400 μM) is 404* %. The “Relative transmittance of lucifer yellow (%)” value in assay [2] (200 μM) was determined as 97.1%; in assay [2] (400 μM), 96.8%. Moreover, the “Number of cells (%)” value turned out to be 108.1% in assay [3] (200 μM), 102.1% in assay [3] (400 μM) and 102.6% in assay [3] (800 μM).
With `Nc1ncnc2c1ncn2[C@@H]1O[C@H](COP(=O)(O)O)[C@@H](O)[C@H]1O` [Adenosine 5′-phosphate, reference compound], in the assay on transglutaminase (400 μM), the “Transglutaminase activity (%)” value worked out at 244%. Also, the results for the “Relative transmittance of lucifer yellow (%)” value in assay [2] (200 μM) and in assay [2] (400 μM) were 90.6% and 81.6%, respectively. In addition, the figures for the “Number of cells (%)” value in assay [3] (200 μM), in assay [3] (400 μM) and in assay [3] (800 μM) were 93.7%, 89.9% and 96.0%, respectively.
Regarding `Nc1c2ncn([C@@H]3O[C@H](CO)[C@@H](O)[C@H]3O)c2nc[n+]1[O-]` [Adenosine N1-oxide, adenosine N1-oxide], the Score is 2.0 in assay [1] (10 μM), 3.0 in assay [1] (20 μM) and 3.0 in assay [1] (40 μM). Moreover, the “Transglutaminase activity (%)” value was 632* % in the assay on transglutaminase (20 μM) and “about 630%” with transglutaminase (20 μM, listed as adenosine N1-oxide). Moreover, the “Relative transmittance of lucifer yellow (%)” value in assay [2] (10 μM) was 71.6* %; in assay [2] (20 μM), 71.3* %. Moreover, the “Number of cells (%)” value in assay [3] (5 μM) worked out at 98.5%; in assay [3] (10 μM), 94.6%; in assay [3] (20 μM), 94.4%.
For `Nc1ncnc2c1ncn2[C@@H]1O[C@H](CO)[C@@H](O)[C@H]1O` [Adenosine, reference compound], the Score in assay [1] (100 μM), in assay [1] (200 μM) and in assay [1] (400 μM) was 0.0 each time. Also, in the assay on transglutaminase (400 μM), the “Transglutaminase activity (%)” value was 360%. Moreover, the entries for the “Relative transmittance of lucifer yellow (%)” value in assay [2] (200 μM) and in assay [2] (400 μM) were 77.1* % and 67.4* %, respectively. In addition, the “Number of cells (%)” value in assay [3] (200 μM) is reported as 93.5%; in assay [3] (400 μM), 87.4%; in assay [3] (800 μM), 91.2%.
As for `Nc1c2ncn([C@@H]3O[C@H](COP(=O)([O-])O)[C@@H](O)[C@H]3O)c2nc[n+]1[O-].[Na+]` [Sodium adenosine N1-oxide 5′-phosphate, sodium adenosine N1-oxide 5′-phosphate], the Score in assay [1] (10 μM) came out at 2.0; in assay [1] (20 μM) it was 3.0; in assay [1] (40 μM), 3.0. Moreover, the “Increase rate of transglutaminase activity (%)” value in the assay with transglutaminase (15 μM, single use, increase over control) came to 0.0%. In addition, the “Transglutaminase activity (%)” value with transglutaminase (20 μM) is on record as 569* %; in the assay with transglutaminase (20 μM, listed as sodium adenosine N1-oxide 5′-phosphate), “about 570%”. Besides, in assay [2] (10 μM, single use, reduction against control), the “Reduction rate of relative transmittance of lucifer yellow (%)” value came out at 21.6%. The results for the “Relative transmittance of lucifer yellow (%)” value in assay [2] (10 μM) and in assay [2] (20 μM) were 78.4% and 62.3* %, respectively. Further, in assay [2] (20 μM, compared to control), the “reduction of lucifer yellow transmittance” value is on record as “about 60%”. The “Number of cells (%)” value in assay [3] (5 μM) is 99.9%; in assay [3] (10 μM), 99.5%; in assay [3] (20 μM), 92.2%.
